Reference: EP1764363A2, “Substituted acetophenonederivatives” (Riemser Arzneimittel AG, priority 2005, dated 2007)
≈ marks a conversion by molar mass, not a printed value.

Columns and labels:
[1] = Radical scavenger screening with DPPH radicals (DPPH test); conditions: Konzentrationen 500 und 1000µg/ml
Source text: […] die 6 Verbindungen HMF2, HMF-3, CH-1, L5, Q20 und […]. Die […] durch den DPPH-Test ermittelt, wobei sich die UV/VIS-Absorption des freien stabilen […] (Diphenyl-β-picrylhydrazin) in Abhängigkeit vom Zustand von […]. Die Auswertung erfolgt qualitativ (dünnschichtchromatographisch) und quantitativ (photometrisch) mit Ascorbinsäure […] Molyneux P. (2004) The use of the stabel free radical diphenylpicrylhydrazyl (DPPH) for estimating antioxidant activity. Songklanakarin J Sci Technol. 26(2): 211-219).

Bacillus subitilis = assay: Minimal inhibitory concentration (MHK), microtitre plate, TTC staining; assay type: cell-based; conditions: 48h, 36°C
Micrococcus luteus = assay: as above; assay type: cell-based; conditions: 48h, 36°C
Rhodococcus equi = assay: as above; assay type: cell-based; conditions: 48h, 36°C
S. falcium = assay: as above; assay type: cell-based; conditions: 48h, 36°C
Salmonella sp = assay: as above; assay type: cell-based; conditions: 48h, 36°C
Source text: Das Inokulum für die Tests wurde durch Verdünnung der Mikroorganismen in wässriger 0,85% NaCI-Lösung hergestellt, die Verdünnung auf die Stufe 0,5 nach McFarland eingestellt und die Konzentration spektrometrisch bei einer Wellenlänge von 580nm überprüft. Die Zellsuspensionen wurden zur Verwendung in den Tests auf 10^4 UFC/ml verdünnt. Die MHK-Tests erfolgten (Vorschrift nach J. N. P. Eloff, Planta Medica, Vol. 64, 1998, p 711-713) in Mikrotiterplatten mit 96 Vertiefungen. Serienverdünnungen der Konzentrationen lagen im Bereich 1,00 - 0,0015 mg/mL. Als Kontrollsubstanzen dienten Chloramphenicol bzw. Nistatin (Merck) in einer Konzentration von 0,062 - 0,005 mg/ml bzw. 0,0125 - 0,001 mg/ml. Das Inokulum (100 µl) wurde in alle Vertiefungen gegeben und die Platten für 48h bei 36°C inkubiert. Die antimikrobielle Aktivität wurde durch Zugabe von 20 µl einer 0,5% igen wässrigen Lösung von TTC (Tetrazoliumchlorid, Merck) pro Vertiefung detektiert. Die minimale Hemmkonzentration (MHK) wird als die niedrigste Konzentration der Verbindung definiert die das sichtbare Wachstum hemmt (durch TTC-Färbung indiziert).

Escherichia coli = assay: as above; assay type: cell-based; conditions: 48h, 36°C
S. aureus = assay: as above; assay type: cell-based; conditions: 48h, 36°C
E. hirae = assay: as above; assay type: cell-based; conditions: 48h, 36°C
S. epidermides = assay: as above; assay type: cell-based; conditions: 48h, 36°C
Candida albicans = assay: as above; assay type: cell-based; conditions: 48h, 36°C
[2] = system: Staphylococcus aureus (Stamm ATCC 6538); assay: Mouse ear test (in vivo), antiseptic effect; set-up: key to Keimwachstum (grade): +++: totale Verhinderung des Keimwachstums; ++: Keimwachstum deutlich reduziert aber nicht völlig unterdrückt; conditions: mouse ears infected with S. aureus ATCC 6538; germ count vs infected untreated animal after 18 and 24 h
Colo205 = assay: Chemosensitivity test (modified MTT test EZ4U); conditions: Homo sapiens, COLO 205, 96 h, read-out: IC50-Werte
Experimental: (§1) Die Verbindungen wurden in Dimethylsulfoxid (DMSO) als konzentrierte Stammlösungen (100-400fach) gelöst und für Proliferationstests in Zellkulturmedium verdünnt.
(§2) Die Zellen wurden auf Verunreinigung durch Mycoplasmen untersucht. Das Medium wurde mit 10% hitzeinaktiviertem foetalem Kälberserum (Seromed) and 4 mM Glutamin ergänzt. Die Zellen wurden durch Trypsinierung subkultiviert (0.03% Trypsin enthaltend 0.02% EDTA, dreimal pro Woche). Die Trypsinierung wurde durch Verwendung vom komplettem Zellkulturmedium gestoppt. Die Zellzahl wurde unter Verwendung eines TOA Sysmex Microzellzählers (TOA, Tokyo, Japan) bestimmt.
(§3) 10^4 Zellen/well wurden in Mikrotiterplatten mit 96 Vertiefungen (100 µl Medium) verteilt und die zu testenden Verbindungen wurden in einem weiteren Volumen von 100 µl hinzugegeben. Alle Verbindungen wurden entweder in 3 fixen Konzentrationen eingesetzt (für Tabellen 1-3) oder in 10 Stufen verdünnt unter Verwendung von Zweifachverdünnungsschritten zur Bestimmung der IC50-Werte (dreifache Ansätze, in den meisten Fällen vierfache Ansätze). Die Platten wurden, mit der Ausnahme der Tests zur Untersuchung des Zusammenhangs von Applikationsdauer und Zellreaktion, 4 Tage lang unter Zellkulturbedingungen inkubiert und die Zellviabilität wurde unter Verwendung eines modifizierten MTT Tests bestimmt (Formazan-Farbstoffbildung aus Tetrazoliumsalzen wie MTT, XTT, WST-1 und anderen durch das mitochondriale Reduktionsystem Succinattetrazolium Reductase EC 1.3.99.1.; EZ4U nichtradioaktiver Zellproliferations- und Cytotoxizitätstest, Biomedica, Wien, Österreich; Testmanual unter: www.bmgrp.com). Hierbei wurde die mitochondriale Aktivität und dadurch die Zellviabilität/Zellzahl bestimmt. Kurz gesagt wurde das gelieferte Substrat in einer Aktivatorlösung gelöst und 20 µl der Mischung wurden für 2 Stunden pro Vertiefung hinzugegeben (Gesamtvolumen 200 µl). Die optische Dichte wurde bei 450 nm unter Verwendung einer leeren Vertiefung als Referenz in einem Mikroplattenlesegerät (Eurogenetics, Brüssel, Belgien) bestimmt. Für jede Zell-Line wurden Vertiefungen verwendet um das MTT-Signal der Mediumkontrollen ohne Testsubstanzen zu bestimmen. Die Proliferation in den Test-Vertiefungen wurde in Bezug auf diese Kontrollwerte (100%) errechnet. Die Testergebnisse wurden zwischen 0,3 und 1,5 optischer Dichte für langsam bzw. schnellproliferierende Zellen erfasst. Diese Dosis-Wirkungs-Beziehungen wurden verwendet um die IC50 (Konzentration bei der das Wachstum um 50% gehemmt wird) unter Verwendung von PRISM Scientific Software (GraphPad Inc., San Diego, CA) zu berechnen.

T47D = assay: Chemosensitivity test (modified MTT test EZ4U); conditions: Homo sapiens, T47D, 96 h, read-out: IC50-Werte
Experimental: as §1, §2, §3

MIAPaCa2 = assay: Chemosensitivity test (modified MTT test EZ4U); conditions: Homo sapiens, MIA PaCa-2, 96 h, read-out: IC50-Werte
Experimental: as §1, §2, §3

WI38 = assay: Chemosensitivity test (modified MTT test EZ4U); conditions: Homo sapiens, WI-38, 96 h, read-out: IC50-Werte
Experimental: as §1, §2, §3

CRO2B = assay: Chemosensitivity test (modified MTT test EZ4U); conditions: Homo sapiens, 96 h, read-out: IC50-Werte
Experimental: as §1, §2, §3

SW620 = assay: Chemosensitivity test (modified MTT test EZ4U); conditions: Homo sapiens, SW-620, 96 h, read-out: IC50-Werte
Experimental: as §1, §2, §3

CaCo-2 = assay: Chemosensitivity test (modified MTT test EZ4U); conditions: Homo sapiens, Caco-2, 96 h, read-out: IC50-Werte
Experimental: as §1, §2, §3

HT29 = assay: Chemosensitivity test (modified MTT test EZ4U); conditions: Homo sapiens, HT-29, 96 h, read-out: IC50-Werte
Source text: as §1
(§4) Mit Ausnahme von SIM, KAL Ewingsarkom (in Wien etabliert) und LAN Neuroblastom (University of Los Angeles) wurden die Zell-Linien von der American Type Culture Collection (ATCC, Rockville, MD) bezogen und zum Erhalt von konfluenten Monolayerkulturen in RPMI-1640 Bikarbonatmedium (Seromed, Berlin, Deutschland) in einem Zellkulturschrank (5% CO2, 37°C) kultiviert. Mit der Ausnahme der murinen NlH3T3 Fibroblasten sind alle verwendeten Zell-Linien humanen Ursprungs. Die Zellen wurden auf Verunreinigung durch Mycoplasmen untersucht. Das Medium wurde mit 10% hitzeinaktiviertem foetalem Kälberserum (Seromed) and 4 mM Glutamin ergänzt. Die Zellen wurden durch Trypsinierung subkultiviert (0.03% Trypsin enthaltend 0.02% EDTA, dreimal pro Woche). Die Trypsinierung wurde durch Verwendung vom komplettem Zellkulturmedium gestoppt. Die Zellzahl wurde unter Verwendung eines TOA Sysmex Microzellzählers (TOA, Tokyo, Japan) bestimmt.
(§5) 10^4 Zellen/well wurden in Mikrotiterplatten mit 96 Vertiefungen (100 µl Medium) verteilt und die zu testenden Verbindungen wurden in einem weiteren Volumen von 100 µl hinzugegeben. […]

MDA-MB435 = assay: Chemosensitivity test (modified MTT test EZ4U); conditions: Homo sapiens, MDA-MB-435, 96 h, read-out: IC50-Werte
Source text: as §1, §4, §5

BT20 = assay: Chemosensitivity test (modified MTT test EZ4U); conditions: Homo sapiens, BT-20, 96 h, read-out: IC50-Werte
Source text: as §1, §4, §5

DU 145 = assay: Chemosensitivity test (modified MTT test EZ4U); conditions: Homo sapiens, DU-145, 96 h, read-out: IC50-Werte
Source text: as §1, §4, §5

BxPC3 = assay: Chemosensitivity test (modified MTT test EZ4U); conditions: Homo sapiens, BXPC-3, 96 h, read-out: IC50-Werte
Source text: as §1, §4, §5

Compound	MHK-Werte (Bacillus subitilis)	MHK-Werte (Micrococcus luteus)	MHK-Werte (Rhodococcus equi)	MHK-Werte (S. falcium)	MHK-Werte (Salmonella sp)	MHK-Werte (Escherichia coli)	MHK-Werte (S. aureus)	MHK-Werte (E. hirae)	MHK-Werte (S. epidermides)	MHK-Werte (Candida albicans)	other results
COc1cc(/C=C/C(=O)c2ccccc2O)ccc1O [Q20, 3-(4-Hydroxy-3-methoxyphenyl)-1-(2-hydroxyphenyl)-propenon]	0,5 mg/ml	1,0 mg/ml	>1,0 mg/ml	0,3 mg/ml	>1,0 mg/ml	>1,0 mg/ml	1,0 mg/ml	>1,0 mg/ml	0,5 mg/ml	0,3 mg/ml	Radikalfänger-Effekt [1]: 98%; Keimwachstum (grade) [2]: ++; Keimwachstum reduziert auf [2]: 30%; IC50 (Colo205): 27 µg/mL (≈ 99.9 µM); IC50 (T47D): 25 µg/mL (≈ 92.5 µM); IC50 (MIAPaCa2): 18 µg/mL (≈ 66.6 µM); IC50 (WI38): 8.3 µg/mL (≈ 30.7 µM); IC50 (CRO2B): 12 µg/mL (≈ 44.4 µM); IC50 (SW620): 17 µg/mL (≈ 62.9 µM); IC50 (CaCo-2): 12 µg/mL (≈ 44.4 µM); IC50 (HT29): 16 µg/mL (≈ 59.2 µM); IC50 (MDA-MB435): 24 µg/mL (≈ 88.8 µM); IC50 (BT20): 33 µg/mL (≈ 122 µM); IC50 (DU 145): 16 µg/mL (≈ 59.2 µM); IC50 (BxPC3): 33 µg/mL (≈ 122 µM)
COc1cc(/C=C/C(=O)c2ccccc2O)ccc1OCC=C(C)C [Q21, 1-(2-Hydroxyphenyl)-3-[3-methoxy-4-(3-methylbut-2-enyloxy)phenyl]propenon]	>1,0 mg/ml	>1,0 mg/ml	>1,0 mg/ml	0,8 mg/ml	0,9 mg/ml	>1,0 mg/ml	>1,0 mg/ml	>1,0 mg/ml	>1,0 mg/ml	0,6 mg/ml	–
